For data set [1], the system named is human pancreatic cancer cell line (B×PC-3). The data set is described as follows: In vivo inhibition of tumor growth, BxPC-3 xenograft. More on the design: species or system human tumor cells in nude mice. The following applies: for Starting volume: at start. The protocol:
Cells from a non-small cell lung cancer cell line (A549) were grown in nine T175 flasks in F12K media and 10% fetal calf serum until the cells were confluent. 4.5×10^6 cells (in 100 microliters) were injected into the right rear flank of 4-5 week old male homozygous (nu/nu) nude mice (Harlan, Madison Wis.). Tumors were allowed to grow to an average size of ≧75 mm^3 before treatments were initiated. Animals of each tumor type, with the properly sized tumors, were divided into treatment groups, including one set of animals treated weekly with vehicle (phosphate buffered saline, PBS). The vehicle and the test agents were all administered by intraperitoneal injection. Each animal was weighed twice a week during treatment. The tumors were measured twice weekly using calipers. Tumor volume (mm^3) was determined by using the formula for an ellipsoid sphere: […]
The percent tumor growth inhibition (% TGI) is calculated by: […]
The xenograft model of this example was set up as in the previous example except that a human pancreatic cancer cell line (B×PC-3) was used. The efficacy of wild type human RNase 1 is shown relative to gemcite. The RNase 1 was administered at 15 mg per kg of body weight of the animal five times per week (15 mg/kg qd×5), while the gemcite was used at 60 mg/kg twice a week. The value of n represents the number of animals in the specific treatment arm of the experiment.
The xenograft model of this example was set up as in the previous example except that a human pancreatic cancer cell line (B×PC-3) was used. The efficacy of wild type human RNase 1 is shown. The RNase 1 was administered at three different doses: (1) 30 mg per kg of body weight of the animal once per week (30 mg/kg 1×wk), (2) 75 mg/kg 1×wk, or (3) 150 mg/kg 1×wk. The value of n represents the number of animals in the specific treatment arm of the experiment.

Data set [2] is described as follows: Clinical chemistry and complete blood count plus platelets (DU145 xenograft mice). The class given is in vivo. The protocol:
Clinical chemistry and a complete blood count (CBC) plus platelets were performed on whole blood and serum samples collected from the mice 24 hours after the last treatment of the prostate xenograft model above. […] Creatinine was also tested and found not to differ. The levels of the liver enzymes, gamma glutamyl transferase (GGT) and alanine transaminase (ALT) in all treatment groups were similar (GGT data not shown.). The values were determined for the various treatment groups of the prostate (DU145) xenograft study for clinical chemistry (A., B.), complete blood count (C., D.), and platelets (F.). Abbreviations: TCO2, amount of bicarbonate ion (HCO3^−); Anion Gap, [Na+K]—[Cl+HCO3]; ALT, alanine aminotransferase; WBC, white blood count; RBC, red blood count; HGB, hemoglobin; RBC HGB, (CHCM×RBC×MCV)/1000); MCH, mean corpuscular hemoglobin; MCHC, mean corpuscular hemoglobin concentration; RDW, red cell distribution width; MPV, mean platelet volume; HCT, hematocrit; MCV, mean corpuscular volume.

Where [3] appears, read: Example 5, Table 9, RNase 1 15 mg/kg qd×5, gemcite 60 mg/kg twice a week.
The mark [4] stands for this setting: Example 7, Table 11, 30 mg/kg 1×wk.
Where [5] appears, read: Example 7, Table 11, 75 mg/kg 1×wk.
Where [6] appears, read: Example 7, Table 11, 150 mg/kg 1×wk.

Take “Wild type human RNase 1: wild type human ribonuclease 1 (human pancreatic RNase), SEQ ID NO:1”: in data set [1] (setting [3]), the “% TGI” value came to 24%, the “(Final − start)” value is reported as 822 mm^3, the “(Final − start)/Control” value worked out at 0.76 and the Final volume is reported as 899 mm^3. This substance also returned a Starting volume in data set [1] (setting [3]) of 77 mm^3. In addition, in data set [1] (setting [4]), the “% TGI” value worked out at 3%, the “(Final − start)” value is 554 mm^3, the “(Final − start)/Control” value is on record as 0.97 and the Final volume came to 632 mm^3. This substance also showed a Starting volume in data set [1] (setting [4]) of 78 mm^3. In data set [1] (setting [5]), the “% TGI” value came out at 43%, the “(Final − start)” value is listed as 323 mm^3, the “(Final − start)/Control” value amounted to 0.57 and the Final volume amounted to 392 mm^3. Further, the Starting volume in data set [1] (setting [5]) worked out at 69 mm^3. Besides, in data set [1] (setting [6]), the “% TGI” value amounted to 29%, the “(Final − start)” value turned out to be 402 mm^3, the “(Final − start)/Control” value is reported as 0.71 and the Final volume is on record as 471 mm^3. This substance also had a Starting volume in data set [1] (setting [6]) of 69 mm^3. Further, in data set [2] (24 hours after the last treatment), the Creatinine versus vehicle result is given as “not to differ”. Besides, in data set [2] (whole blood and serum 24 hours after the last treatment, Mann-Whitney U test), the “Clinical chemistry and complete blood count plus platelets, all tests, versus vehicle” value is listed as “not to be significantly different”.

The record behind these values is patent US9192656B2, “Methods and compositions for the treatment of cancer” (QUINTESSENCE BIOSCIENCES, INC., priority 2006, dated 2015).
